pIC50: −log10 of the molar value.

The target of one assay is T1, NK-1 (Homo sapiens, UniProt P25103).
T1 construct: endogenous in cells; host or cells: U373 cells (crude membranes)
The assay is described as follows: NK1 radioligand binding assay ([125I]Substance P, U373 cell membranes). The conditions noted are these: 1 hour at room temperature. Here is the method: (§1) NK-1 Binding assay. Crude membrane suspensions were prepared for the NK1 and SERT radioligand binding assays from U373 cells or recombinant HEK-293 cells expressing hSERT, respectively. Cells were harvested from T-175 flasks as follows. The medium is removed from the flasks and the cells rinsed with HBSS without Ca and without Mg. The cells are then incubated for 5-10 minutes in 10 mM Tris-Cl, pH 7.5, 5 mM EDTA before the cells are lifted with a combination of pipetting and scraping, as needed. To prepare membranes, the cell suspension is collected into centrifuge bottles and homogenized for 30 seconds with a Polytron homogenizer. The suspension is centrifuged for 30 min @ 32,000×g, 4° C., then the supernatant is decanted and the pellet resuspended and homogenized in 50 mM Tris-Cl, pH 7.5, 1 mM EDTA for 10 seconds. The suspension is then centrifuged again for 30 min @ 32,000×g, 4° C. The supernatant is decanted and the pellet resuspended in 50 mM Tris-Cl, pH 7.5, 1 mM EDTA and briefly homogenized. A Bradford assay (Bio-rad) is performed and the membrane preparation diluted to 2 mg/ml with 50 mM Tris-Cl, pH 7.5, 1 mM EDTA. Aliquots are prepared, and then frozen and stored at −80° C.
NK1 radioligand binding assay. Compounds are dissolved in 100% DMSO at a concentration 100× the desired highest assay concentration, serially diluted 1:3 in 100% DMSO, and 0.6 ul/well of each solution is dispensed to a Nunc polypropylene, round bottom, 384 well plate. 100% inhibition is defined with 0.6 ul/well of 1 mM L-733,060 (Sigma L-137) dissolved in DMSO. 30 ul/well of a 2×U373 membrane preparation (267 ug/ml in 100 mM Tris-Cl, pH 7.5, 6 mM MgCl2, 0.2% (v/v) Sigma mammalian protease inhibitor cocktail (Sigma P-8340), and 4 ug/ml chymostatin, Sigma C-7268) and 30 ul/well of a 2×radioligand solution (400 pM [^125I]Substance P (Perkin Elmer NEX-190) in 1% (w/v) BSA (Sigma A-2153), 0.1 mg/ml bacitracin, Sigma B-0125) are added to the well and the reaction incubated for 1 hour at room temperature. The contents of the assay plate are then transferred to a Millipore MultiscreenHTS GF/B filter plate which has been pretreated with 0.5% PEI for at least one hour. The plate is vacuum filtered and washed with 7 washes of 100 ul/well of 20 mM Tris-Cl, pH 7.5, 0.5% (w/v) BSA chilled to 4° C. The filtration and washing is completed in less than 90 s. The plates are air-dried overnight, 12 ul/well of MicroScint scintillation fluid added, and the plates counted in a Trilux.
(§2) Data analysis. The raw data are normalized to percent inhibition using control wells defining 0% (DMSO only) and 100% (selective inhibitor) inhibition which are run on each plate. Each plate is run in triplicate, and the concentration response curve thus generated is fit using the four-parameter dose response equation, Y=Bottom+(Top-Bottom)/(1+10^((LogIC50-X)*HillSlope)) in order to determine the IC50 value for each compound. The radioligand concentration chosen for each assay corresponds to the Kd concentration determined through saturation binding analysis for each assay.

The next assay has as its target T2, hSERT (Homo sapiens, UniProt P31645).
T2 construct: expressed in transfected cells; host or cells: HEK-293 cells (crude membranes)
The assay is described as follows: SERT radioligand binding assay ([125I]RTI-55, HEK-hSERT membranes). The conditions noted are these: [125I]RTI-55, 1 hour at room temperature. On the procedure: as §1
SERT radioligand binding assay. Compounds are dissolved in 100% DMSO at a concentration 100× the desired highest assay concentration, serially diluted 1:3 in 100% DMSO, and 0.4 ul/well of each solution is dispensed to a Nunc polypropylene, round bottom, 384 well plate. 100% inhibition is defined with 0.4 ul/well of 1 mM fluoxetine (Sigma F-132) dissolved in DMSO. 20 ul/well of a 2×HEK-hSERT membrane preparation (15 ug/ml in 50 mM Tris-Cl, pH 7.5, 120 mM NaCl, 5 mM KCl) and 20 ul/well of a 2×radioligand solution (520 pM [^125I]RTI-55 (Perkin-Elmer NEX-272) in 50 mM Tris-Cl, pH 7.5, 120 mM NaCl, 5 mM KCl) are added to each well and the reaction incubated for 1 hour at room temperature. The contents of the assay plate are then transferred to a Millipore MultiscreenHTS GF/B filter plate which has been pretreated with 0.5% PEI for at least one hour. The plate is vacuum filtered and washed with 7 washes of 100 ul/well of 50 mM Tris-Cl, pH 7.5, 120 mM NaCl, 5 mM KCl chilled to 4° C. The filtration and washing is completed in less than 90 s. The plates are air-dried overnight, 12 ul/well of MicroScint scintillation fluid added, and the plates counted in a Trilux.
as §2

T2 sequence (P31645 whole entry): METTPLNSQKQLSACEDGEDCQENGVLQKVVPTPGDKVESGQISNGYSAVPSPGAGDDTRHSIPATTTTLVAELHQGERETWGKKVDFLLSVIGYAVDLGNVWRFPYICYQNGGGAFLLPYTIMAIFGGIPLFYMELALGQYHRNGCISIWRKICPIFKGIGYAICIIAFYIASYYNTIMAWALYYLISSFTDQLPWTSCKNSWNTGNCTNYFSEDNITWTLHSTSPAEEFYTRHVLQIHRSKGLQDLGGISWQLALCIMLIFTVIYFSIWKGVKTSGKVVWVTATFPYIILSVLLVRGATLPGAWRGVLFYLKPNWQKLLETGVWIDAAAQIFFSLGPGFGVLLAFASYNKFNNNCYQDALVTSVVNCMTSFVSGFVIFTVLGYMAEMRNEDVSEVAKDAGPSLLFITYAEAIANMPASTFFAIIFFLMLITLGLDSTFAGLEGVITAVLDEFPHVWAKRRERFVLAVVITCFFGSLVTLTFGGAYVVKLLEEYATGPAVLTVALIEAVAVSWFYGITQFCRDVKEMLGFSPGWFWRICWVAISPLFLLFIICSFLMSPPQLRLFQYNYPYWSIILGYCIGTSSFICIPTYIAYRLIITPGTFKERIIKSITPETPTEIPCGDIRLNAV
T1 sequence (P25103 whole entry): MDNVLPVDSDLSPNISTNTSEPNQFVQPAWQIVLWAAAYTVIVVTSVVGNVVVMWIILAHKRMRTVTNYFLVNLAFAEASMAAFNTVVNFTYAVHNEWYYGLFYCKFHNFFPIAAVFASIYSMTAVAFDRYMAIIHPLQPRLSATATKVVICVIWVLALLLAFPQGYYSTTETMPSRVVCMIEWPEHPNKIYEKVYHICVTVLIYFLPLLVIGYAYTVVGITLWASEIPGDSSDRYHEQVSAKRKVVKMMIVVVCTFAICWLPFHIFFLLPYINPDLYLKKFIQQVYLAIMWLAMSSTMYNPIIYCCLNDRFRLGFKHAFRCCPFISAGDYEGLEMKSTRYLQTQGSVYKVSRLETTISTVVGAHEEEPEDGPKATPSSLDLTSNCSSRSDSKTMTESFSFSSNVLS

As for `CN(C)CCC1(COCc2cc(Br)cc(C(F)(F)F)c2)OCc2ccccc21` (centres unmarked) [Example 17, 2-(1-((3-bromo-5-(trifluoromethyl)benzyloxy)methyl)-1,3-dihydroisobenzofuran-1-yl)-N,N-dimethylethanamine], the negative-log IC50 (pIC50) on NK-1 and at hSERT was 7.00 to 11.00 throughout.

For `NCCC1(COCc2cc(-c3ccc(F)cc3)cc(C(F)(F)F)c2)OCc2ccccc21` (centres unmarked) [Example 9], the pIC50 on NK-1 is 7.00 to 11.00; at hSERT it was 6.52 to 7.00.

Turning to `N#Cc1ccc(-c2cc(COCC3(CCN)OCc4ccccc43)cc(C(F)(F)F)c2)cc1` (centres unmarked) [Example 2, 3′-(((1-(2-aminoethyl)-1,3-dihydroisobenzofuran-1-yl)methoxy)methyl)-5′-(trifluoromethyl)biphenyl-4-carbonitrile], the values for the pIC50 at NK-1 and on hSERT were 7.00 to 11.00 and 6.52 to 7.00, respectively.

Regarding `CN(C)CCC1(COCc2cc(C(F)(F)F)cc(C(F)(F)F)c2)OCc2ccccc21` (centres unmarked) [Example 36, 2-(1-((3,5-Bis(trifluoromethyl)benzyloxy)methyl)-1,3-dihydroisobenzofuran-1-yl)-N,N-dimethylethanamine], the pIC50 at NK-1 and on hSERT was 7.00 to 11.00 throughout.

On to `NCCC1(COCc2cc(-c3ccc(F)c(F)c3)cc(C(F)(F)F)c2)OCc2ccccc21` (centres unmarked) [Example 11], for which the results for the pIC50 at NK-1 and at hSERT were 7.00 to 11.00 and 6.52 to 7.00, respectively.

As to `NCCC1(COCc2cc(C(F)(F)F)cc(C(F)(F)F)c2)OCCc2ccccc21` (centres unmarked) [Example 39, 2-(1-((3,5-Bis(trifluoromethyl)benzyloxy)methyl)isochroman-1-yl)ethanamine], the negative logarithm of the IC50 (pIC50) at NK-1 and at hSERT was 7.00 to 11.00 in each case.

As for `CN(C)CCC1(COCc2cc(Cl)cc(-c3ccc(C#N)cc3)c2)OCc2ccccc21` (centres unmarked) [Example 33], the pIC50 on NK-1 and on hSERT was 7.00 to 11.00 in each case.

Regarding `CN(C)CCC1(COCc2cc(N3CCOCC3)cc(C(F)(F)F)c2)OCc2ccccc21` (centres unmarked) [Example 20, N,N-dimethyl-2-(1-((3-morpholino-5-(trifluoromethyl)benzyloxy)methyl)-1,3-dihydroisobenzofuran-1-yl)ethanamine], the negative-log IC50 (pIC50) at NK-1 and at hSERT was 7.00 to 11.00 throughout.

On to `NCCC1(COCc2cc(C(F)(F)F)cc(C(F)(F)F)c2)OCc2ccccc21` (centres unmarked) [Example 35, 2-(1-((3,5-Bis(trifluoromethyl)benzyloxy)methyl)-1,3-dihydroisobenzofuran-1-yl)ethanamine], for which the pIC50 on NK-1 is 7.00 to 11.00; at hSERT it was 6.52 to 7.00.

In the case of `NCCC1(COCc2cc(Cl)cc(Br)c2)OCc2ccccc21` (centres unmarked) [Example 32], the negative logarithm of the IC50 (pIC50) at NK-1 and on hSERT was 7.00 to 11.00 each time.

As to `N#Cc1ccc2c(c1)COC2(CCN)COCc1cc(C(F)(F)F)cc(C(F)(F)F)c1` (centres unmarked) [Example 23], the figures for the negative-log IC50 (pIC50) at NK-1 and at hSERT were 7.00 to 11.00 and 6.52 to 7.00, respectively.

In the case of `CC(OCC1(CCN)OCc2ccccc21)c1cc(C(F)(F)F)cc(C(F)(F)F)c1` (centres unmarked) [Example 30], the pIC50 on NK-1 is 7.00 to 11.00; at hSERT, below 6.52.

As to `NCCC1(COCc2cc(N3CCOCC3)cc(C(F)(F)F)c2)OCc2ccccc21` (centres unmarked) [Example 16, 2-(1-((3-morpholino-5-(trifluoromethyl)benzyloxy)methyl)-1,3-dihydroisobenzofuran-1-yl)ethanamine], the negative logarithm of the IC50 (pIC50) on NK-1 is 7.00 to 11.00; at hSERT, below 6.52.

Consider `COc1ccc(-c2cc(COCC3(CCN)OCc4ccccc43)cc(C(F)(F)F)c2)cc1` (centres unmarked) [Example 7], for which the negative logarithm of the IC50 (pIC50) at NK-1 is 7.00 to 11.00; on hSERT, below 6.52.

With `NCCC1(COCc2cc(-c3ccc(Cl)cc3)cc(C(F)(F)F)c2)OCc2ccccc21` (centres unmarked) [Example 8], the pIC50 on NK-1 is 7.00 to 11.00; on hSERT it was 6.52 to 7.00.

In the case of `NCCCC1(COCc2cc(C(F)(F)F)cc(C(F)(F)F)c2)OCc2ccccc21` (centres unmarked) [Example 37, 3-(1-((3,5-Bis(trifluoromethyl)benzyloxy)methyl)-1,3-dihydroisobenzofuran-1-yl)propan-1-amine], the pIC50 at NK-1 and at hSERT was 7.00 to 11.00 throughout.

Regarding `CN(C)CCC1(COCc2cc(-c3ccc(C#N)cc3)cc(C(F)(F)F)c2)OCc2ccccc21` (centres unmarked) [Example 18], the negative logarithm of the IC50 (pIC50) on NK-1 is 7.00 to 11.00; on hSERT it was 6.52 to 7.00.

As to `CC(OCC1(CCN)OCc2ccccc21)c1cc(Br)cc(C(F)(F)F)c1` (centres unmarked) [Example 28], the figures for the pIC50 at NK-1 and at hSERT were 7.00 to 11.00 and below 6.52, respectively.

On to `N#Cc1ccc(-c2cc(Cl)cc(COCC3(CCN)OCc4ccccc43)c2)cc1` (centres unmarked) [Example 34], for which the negative-log IC50 (pIC50) on NK-1 and on hSERT was 7.00 to 11.00 each time.

In the case of `CN(C)CCC1(COCc2cc(-c3ccc(C#N)cc3)cc(C(F)(F)F)c2)OCc2cc(C#N)ccc21` (centres unmarked) [Example 25], the pIC50 was 7.00 to 11.00 on NK-1 and below 6.52 at hSERT.

As for `NCCC1(COCc2cc(-c3ccccc3C(N)=O)cc(C(F)(F)F)c2)OCc2ccccc21` (centres unmarked) [Example 5], the negative-log IC50 (pIC50) at NK-1 and at hSERT was below 6.52 each time.

Turning to `CC(OCC1(CCN(C)C)OCc2ccccc21)c1cc(Br)cc(C(F)(F)F)c1` (centres unmarked) [Example 27], the pIC50 at NK-1 is 7.00 to 11.00; at hSERT it was 6.52 to 7.00.

In the case of `COc1ccc(-c2cc(COCC3(CCN)OCc4ccccc43)cc(C(F)(F)F)c2)cc1F` (centres unmarked) [Example 12], the figures for the pIC50 on NK-1 and at hSERT were 7.00 to 11.00 and below 6.52, respectively.

Regarding `N#Cc1ccccc1-c1cc(COCC2(CCN)OCc3ccccc32)cc(C(F)(F)F)c1` (centres unmarked) [Example 6], the negative-log IC50 (pIC50) on NK-1 and at hSERT was 6.52 to 7.00 throughout.

For the compound `CN(C)CCC1(COCc2cc(C(F)(F)F)cc(C(F)(F)F)c2)OCCc2ccccc21` (centres unmarked) [Example 40, 2-(1-((3,5-Bis(trifluoromethyl)benzyloxy)methyl)isochroman-1-yl)-N,N-dimethylethanamine], the pIC50 at NK-1 and at hSERT was 7.00 to 11.00 throughout.

Regarding `CN(C)CCC1(COCc2cc(C(F)(F)F)cc(C(F)(F)F)c2)OCc2cc(C#N)ccc21` (centres unmarked) [Example 21], the negative logarithm of the IC50 (pIC50) is 7.00 to 11.00 at NK-1 and below 6.52 at hSERT.

`CN(C)CCCC1(COCc2cc(C(F)(F)F)cc(C(F)(F)F)c2)OCc2ccccc21` (centres unmarked) [Example 38, 3-(1-((3,5-is(trifluoromethyl)benzyloxy)methyl)-1,3-dihydroisobenzofuran-1-yl)-N,N-dimethylpropan-1-amine]: the figures for the negative logarithm of the IC50 (pIC50) at NK-1 and at hSERT were 7.00 to 11.00 and below 6.52, respectively.

For `NCCC1(COCc2cc(-c3ccc(F)cc3F)cc(C(F)(F)F)c2)OCc2ccccc21` (centres unmarked) [Example 15], the pIC50 at NK-1 is 7.00 to 11.00; on hSERT, 6.52 to 7.00.

As for `CN(C)CCC1(COCc2cc(-c3ccncc3)cc(C(F)(F)F)c2)OCc2cc(C#N)ccc21` (centres unmarked) [Example 26], the pIC50 at NK-1 was 6.52 to 7.00; on hSERT, below 6.52.

With `NCCC1(COCc2cc(-c3cccc(F)c3)cc(C(F)(F)F)c2)OCc2ccccc21` (centres unmarked) [Example 10], the pIC50 is 7.00 to 11.00 at NK-1 and 6.52 to 7.00 on hSERT.

Take `NCCC1(COCc2cc(-c3cccc(Cl)c3)cc(C(F)(F)F)c2)OCc2ccccc21` (centres unmarked) [Example 13]: the pIC50 on NK-1 is 6.52 to 7.00; on hSERT, below 6.52.

One may read the pIC50 as the negative decadic logarithm of the IC50, by convention in mol/L.
